The target of this experiment is T1, mouse TRPM3a2 (mTRPM3) ion channel (Mus musculus, UniProt J9SQF3).
T1 construct: expressed in transfected cells; host or cells: flip-in HEK293
Briefly: TRPM3 ion channel driven Ca2+ uptake, Fluo-4 AM assay (PS-stimulated, overexpressing flip-in HEK293 cells). The class given is cell-based. As to conditions: PS (50 μM) stimulated, cpd 001-199. The method, boiled down: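 Flip-in HEK293 cells overexpressing mTRPM3α2, loaded with Fluo-4 AM, were added to wells with compound plus 50 μM pregnenolone sulfate in Ca2+-containing Krebs buffer and read immediately (ex 485/em 535 nm). Percent inhibition was scaled between PS-plus-vehicle and positive-control-inhibitor signals.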

Some results are limits rather than exact numbers.

T1 sequence (J9SQF3 1-1709 isoform J9SQF3-12): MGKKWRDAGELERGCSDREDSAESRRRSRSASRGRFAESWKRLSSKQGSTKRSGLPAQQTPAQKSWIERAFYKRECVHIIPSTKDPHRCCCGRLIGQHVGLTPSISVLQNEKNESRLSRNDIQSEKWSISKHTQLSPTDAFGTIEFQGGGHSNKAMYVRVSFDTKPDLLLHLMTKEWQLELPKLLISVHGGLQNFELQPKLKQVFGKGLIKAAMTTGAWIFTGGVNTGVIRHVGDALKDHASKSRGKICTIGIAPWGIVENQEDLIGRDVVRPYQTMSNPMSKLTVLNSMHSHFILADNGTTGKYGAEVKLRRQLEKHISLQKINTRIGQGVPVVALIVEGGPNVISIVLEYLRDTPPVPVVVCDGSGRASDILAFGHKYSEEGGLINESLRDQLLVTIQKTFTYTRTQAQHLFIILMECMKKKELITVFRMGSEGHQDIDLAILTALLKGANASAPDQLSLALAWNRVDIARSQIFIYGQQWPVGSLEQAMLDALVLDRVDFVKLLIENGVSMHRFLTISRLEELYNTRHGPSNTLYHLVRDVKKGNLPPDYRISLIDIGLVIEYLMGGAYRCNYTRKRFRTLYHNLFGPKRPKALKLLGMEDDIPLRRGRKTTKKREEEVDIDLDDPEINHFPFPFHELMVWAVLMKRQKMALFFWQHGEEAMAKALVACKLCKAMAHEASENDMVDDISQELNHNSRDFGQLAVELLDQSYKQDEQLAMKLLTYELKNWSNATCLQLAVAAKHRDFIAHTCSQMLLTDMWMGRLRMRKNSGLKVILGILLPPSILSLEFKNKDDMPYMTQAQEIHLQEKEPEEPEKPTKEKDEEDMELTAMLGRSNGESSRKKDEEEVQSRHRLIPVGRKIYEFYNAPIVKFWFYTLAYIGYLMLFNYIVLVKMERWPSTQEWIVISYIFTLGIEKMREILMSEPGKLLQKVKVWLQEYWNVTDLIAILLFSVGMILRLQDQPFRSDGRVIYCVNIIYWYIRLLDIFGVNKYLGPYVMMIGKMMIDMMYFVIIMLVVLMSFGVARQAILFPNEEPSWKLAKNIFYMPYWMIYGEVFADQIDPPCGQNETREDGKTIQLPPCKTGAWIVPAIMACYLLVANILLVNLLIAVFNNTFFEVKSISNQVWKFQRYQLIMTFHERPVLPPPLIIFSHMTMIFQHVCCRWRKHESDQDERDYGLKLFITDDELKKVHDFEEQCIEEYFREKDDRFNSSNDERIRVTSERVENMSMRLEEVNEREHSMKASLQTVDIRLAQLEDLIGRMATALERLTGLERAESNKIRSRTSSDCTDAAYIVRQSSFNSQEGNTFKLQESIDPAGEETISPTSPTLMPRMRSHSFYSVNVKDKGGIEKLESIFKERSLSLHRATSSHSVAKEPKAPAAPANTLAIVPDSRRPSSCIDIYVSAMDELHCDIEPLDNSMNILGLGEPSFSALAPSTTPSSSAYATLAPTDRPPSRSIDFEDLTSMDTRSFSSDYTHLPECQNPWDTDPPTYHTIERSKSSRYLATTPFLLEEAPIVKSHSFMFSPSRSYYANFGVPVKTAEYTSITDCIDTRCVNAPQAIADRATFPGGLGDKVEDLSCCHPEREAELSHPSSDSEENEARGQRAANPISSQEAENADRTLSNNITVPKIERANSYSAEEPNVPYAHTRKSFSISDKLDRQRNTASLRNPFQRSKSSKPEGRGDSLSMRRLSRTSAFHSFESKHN

Take `Cc1ccc(COc2ccc3oc(C)c(C(=O)NC4CCNC4=O)c3c2)c(C)n1` (stereo not drawn) [cpd 044, 5-((2,6-dimethylpyridin-3-yl)methoxy)-2-methyl-N-(2-oxopyrrolidin-3-yl)benzofuran-3-carboxamide]: the IC50 was 1000 to 20000 nM.
Turning to `Cc1oc2ccc(OC(C)c3ccncc3)cc2c1C(=O)NC1CCN(C)CC1` (stereo not drawn) [cpd 045, 2-methyl-N-(1-methylpiperidin-4-yl)-5-(1-(pyridin-4-yl)ethoxy)benzofuran-3-carboxamide], the 50% inhibitory concentration (IC50) lay in the range of 1000 to 20000 nM.
Then `Cc1oc2ccc(OCc3nccs3)cc2c1C(=O)NC1CCNCC1(F)F` (stereo not drawn) [cpd 050, N-(3,3-difluoropiperidin-4-yl)-2-methyl-5-(thiazol-2-ylmethoxy)benzofuran-3-carboxamide], with no more than 1000 nM.
The compound `Cc1ccncc1COc1ccc2oc(C)c(C(=O)NC3(CO)CCOCC3)c2c1` [cpd 052, N-(4-(hydroxymethyl)tetrahydro-2H-pyran-4-yl)-2-methyl-5-((4-methylpyridin-3-yl)methoxy)-benzofuran-3-carboxamide] displayed an IC50 of 1000 to 20000 nM.
In turn, `Cc1cccnc1COc1ccc2oc(C)c(C(=O)NC3CCNCC3(F)F)c2c1` (stereo not drawn) [cpd 053, N-(3,3-difluoropiperidin-4-yl)-2-methyl-5-((3-methylpyridin-2-yl)methoxy)benzofuran-3-carboxamide] showed a half-maximal inhibitory concentration (IC50) of 1000 to 20000 nM.
Then `Cc1oc2ccc(OCc3nccc4ccccc34)cc2c1C(=O)NC1CCN(C)CC1` [cpd 059, 5-(isoquinolin-1-ylmethoxy)-2-methyl-N-(1-methylpiperidin-4-yl)benzofuran-3-carboxamide], with 1000 to 20000 nM; and `Cc1oc2ccc(OCc3cccc4cnccc34)cc2c1C(=O)NC1CCN(C)CC1` [cpd 060, 5-(isoquinolin-5-ylmethoxy)-2-methyl-N-(1-methylpiperidin-4-yl)benzofuran-3-carboxamide], with 1000 to 20000 nM.
Consider `COc1ncccc1COc1ccc2oc(C)c(C(=O)NC3CCNCC3(F)F)c2c1` (stereo not drawn) [cpd 062, N-(3,3-difluoropiperidin-4-yl)-5-((2-methoxypyridin-3-yl)methoxy)-2-methylbenzofuran-3-carboxamide], for which the IC50 is no more than 1000 nM.
Compound `Cc1oc2ccc(OCc3cccc(C(F)(F)F)n3)cc2c1C(=O)NC1CCNC1=O` (stereo not drawn) [cpd 065, 2-methyl-N-(2-oxopyrrolidin-3-yl)-5-((6-(trifluoromethyl)pyridin-2-yl)methoxy)benzofuran-3-carboxamide] gave an IC50 of 1000 to 20000 nM.
Turning to `Cc1oc2ccc(OCc3ccc(C(F)(F)F)nc3)cc2c1C(=O)NC1CCNC1=O` (stereo not drawn) [cpd 066, 2-methyl-N-(2-oxopyrrolidin-3-yl)-5-((6-(trifluoromethyl)pyridin-3-yl)methoxy)benzofuran-3-carboxamide], the IC50 is 1000 to 20000 nM.
`Cc1oc2ccc(OCc3ccc(C(F)(F)F)o3)cc2c1C(=O)NC1CCN(C)CC1` [cpd 069, 2-methyl-N-(1-methylpiperidin-4-yl)-5-((5-(trifluoromethyl)furan-2-yl)methoxy)benzofuran-3-carboxamide] returned an IC50 of 1000 to 20000 nM.
Then `Cc1cncc(COc2ccc3oc(C)c(C(=O)N[C@H]4CCN(C(=O)OC(C)(C)C)C4)c3c2)c1` [cpd 073, tert-butyl (S)-3-(2-methyl-5-((5-methylpyridin-3-yl)methoxy)benzofuran-3-carboxamido)pyrrolidine-1-carboxylate], with 1000 to 20000 nM; and `Cc1oc2ccc(OCc3cccnc3C(F)(F)F)cc2c1C(=O)NC1CCNCC1(F)F` (stereo not drawn) [cpd 074, N-(3,3-difluoropiperidin-4-yl)-2-methyl-5-((2-(trifluoromethyl)pyridin-3-yl)methoxy)benzofuran-3-carboxamide], with no more than 1000 nM; and `Cc1oc2ccc(OCc3ncccc3C(F)(F)F)cc2c1C(=O)NC1CCNCC1(F)F` (stereo not drawn) [cpd 076, N-(3,3-difluoropiperidin-4-yl)-2-methyl-5-((3-(trifluoromethyl)pyridin-2-yl)methoxy)benzofuran-3-carboxamide], with 1000 to 20000 nM.
The compound `Cc1oc2ccc(OCc3cccc(N(C)C)n3)cc2c1C(=O)NC1CCN(C(=O)OC(C)(C)C)CC1(F)F` (stereo not drawn) [cpd 078, tert-butyl 4-(5-((6-(dimethylamino)pyridin-2-yl)methoxy)-2-methylbenzofuran-3-carboxamido)-3,3-difluoropiperidine-1-carboxylate] returned an IC50 of 1000 to 20000 nM.
The compound `CCOC(=O)c1c(C)oc2ccc(OCC3CCN(C(=O)OC(C)(C)C)C3)cc12` (stereo not drawn) [cpd 079, tert-butyl 3-(((3-(ethoxycarbonyl)-2-methylbenzofuran-5-yl)oxy)methyl)pyrrolidine-1-carboxylate] displayed an IC50 of 1000 to 20000 nM.
As for `Cc1oc2ccc(OCc3nccs3)cc2c1C(=O)NC1CCN(C(=O)OC(C)(C)C)CC1(F)F` (stereo not drawn) [cpd 087, tert-butyl 3,3-difluoro-4-(2-methyl-5-(thiazol-2-ylmethoxy)benzofuran-3-carboxamido)piperidine-1-carboxylate], the half-inhibitory concentration (IC50) fell in the range of 1000 to 20000 nM.
The compound `Cc1cccnc1COc1ccc2oc(C)c(C(=O)NC3CCN(C(=O)OC(C)(C)C)CC3(F)F)c2c1` (stereo not drawn) [cpd 088, tert-butyl 3,3-difluoro-4-(2-methyl-5-((3-methylpyridin-2-yl)methoxy)benzofuran-3-carbox-amido)piperidine-1-carboxylate] showed a 50% inhibitory concentration (IC50) of 1000 to 20000 nM.
Regarding `COc1ncccc1COc1ccc2oc(C)c(C(=O)NC3CCN(C(=O)OC(C)(C)C)CC3(F)F)c2c1` (stereo not drawn) [cpd 089, tert-butyl 3,3-difluoro-4-(5-((2-methoxypyridin-3-yl)methoxy)-2-methylbenzofuran-3-carbox-amido)piperidine-1-carboxylate], the concentration for half-maximal inhibition (IC50) lay within 1000 to 20000 nM.
As for `Cc1ncsc1COc1ccc2oc(C)c(C(=O)NC3CCN(C(=O)OC(C)(C)C)CC3(F)F)c2c1` (stereo not drawn) [cpd 090, tert-butyl 3,3-difluoro-4-(2-methyl-5-((4-methylthiazol-5-yl)methoxy)benzofuran-3-carbox-amido)piperidine-1-carboxylate], the IC50 is 1000 to 20000 nM.
`COc1cccc(COc2ccc3oc(C)c(C(=O)NC4CCN(C(=O)OC(C)(C)C)CC4(F)F)c3c2)n1` (stereo not drawn) [cpd 091, tert-butyl 3,3-difluoro-4-(5-((6-methoxypyridin-2-yl)methoxy)-2-methylbenzofuran-3-carbox-amido)piperidine-1-carboxylate] returned a half-inhibitory concentration (IC50) of 1000 to 20000 nM.
Compound `Cc1oc2ccc(OCc3cccnc3Cl)cc2c1C(=O)NC1CCN(C(=O)OC(C)(C)C)CC1(F)F` (stereo not drawn) [cpd 092, tert-butyl 4-(5-((2-chloropyridin-3-yl)methoxy)-2-methylbenzofuran-3-carboxamido)-3,3-difluoro-piperidine-1-carboxylate] displayed an IC50 of 1000 to 20000 nM.
In turn, `Cc1oc2ccc(OCc3cnccc3Cl)cc2c1C(=O)NC1CCN(C(=O)OC(C)(C)C)CC1(F)F` (stereo not drawn) [cpd 093, tert-butyl 4-(5-((4-chloropyridin-3-yl)methoxy)-2-methylbenzofuran-3-carboxamido)-3,3-difluoro-piperidine-1-carboxylate] gave a concentration for half-maximal inhibition (IC50) of 1000 to 20000 nM.
As for `Cc1oc2ccc(OCc3ccc4nccn4c3)cc2c1C(=O)NC1CCN(C(=O)OC(C)(C)C)CC1(F)F` (stereo not drawn) [cpd 094, tert-butyl 3,3-difluoro-4-(5-(imidazo[1,2-a]pyridin-6-ylmethoxy)-2-methylbenzofuran-3-carbox-amido)piperidine-1-carboxylate], the half-inhibitory concentration (IC50) lay in the range of 1000 to 20000 nM.
Compound `Cc1oc2ccc(OCc3cncc(C(F)(F)F)c3)cc2c1C(=O)NC1CCN(C(=O)OC(C)(C)C)CC1(F)F` (stereo not drawn) [cpd 095, tert-butyl 3,3-difluoro-4-(2-methyl-5-((5-(trifluoromethyl)pyridin-3-yl)methoxy)benzofuran-3-carboxamido)piperidine-1-carboxylate] showed an IC50 of 1000 to 20000 nM.
As for `Cc1oc2ccc(OCc3ncccc3C(F)(F)F)cc2c1C(=O)NC1CCN(C(=O)OC(C)(C)C)CC1(F)F` (stereo not drawn) [cpd 096, tert-butyl 3,3-difluoro-4-(2-methyl-5-((3-(trifluoromethyl)pyridin-2-yl)methoxy)benzofuran-3-carboxamido)piperidine-1-carboxylate], the 50% inhibitory concentration (IC50) fell in the range of 1000 to 20000 nM.
The compound `Cc1oc2ccc(OCc3ccccn3)cc2c1C(=O)NC1CCN(C(=O)OC(C)(C)C)CC1(F)F` (stereo not drawn) [cpd 097, tert-butyl 3,3-difluoro-4-(2-methyl-5-(pyridin-2-ylmethoxy)benzofuran-3-carboxamido)piperidine-1-carboxylate] gave an IC50 of 1000 to 20000 nM.
In turn, `Cc1oc2ccc(OCc3cccnc3C(F)(F)F)cc2c1C(=O)NC1CCN(C(=O)OC(C)(C)C)CC1(F)F` (stereo not drawn) [cpd 098, tert-butyl 3,3-difluoro-4-(2-methyl-5-((2-(trifluoromethyl)pyridin-3-yl)methoxy)benzofuran-3-carboxamido)piperidine-1-carboxylate] had an IC50 of 1000 to 20000 nM.
`Cc1ccncc1COc1ccc2oc(C)c(C(=O)O)c2c1` [cpd 099, 2-methyl-5-((4-methylpyridin-3-yl)methoxy)benzofuran-3-carboxylic acid] displayed an IC50 of 1000 to 20000 nM.
Consider `COc1ncccc1COc1ccc2oc(C)c(C(=O)O)c2c1` [cpd 100, 5-((2-methoxypyridin-3-yl)methoxy)-2-methylbenzofuran-3-carboxylic acid], for which the IC50 is 1000 to 20000 nM.
Turning to `Cc1ncsc1COc1ccc2oc(C)c(C(=O)O)c2c1` [cpd 102, 2-methyl-5-((4-methylthiazol-5-yl)methoxy)benzofuran-3-carboxylic acid], the 50% inhibitory concentration (IC50) fell in the range of 1000 to 20000 nM.
In turn, `Cc1oc2ccc(OCc3cccnc3C(F)(F)F)cc2c1C(=O)n1ccc(N)n1` [cpd 178, (3-amino-1H-pyrazol-1-yl)(2-methyl-5-((2-(trifluoromethyl)pyridin-3-yl)methoxy)benzofuran-3-yl)methanone] showed an IC50 of 1000 to 20000 nM.
`Cc1oc2ccc(OCc3cccnc3C(F)(F)F)cc2c1C(=O)n1cc(N)cn1` [cpd 181, (4-amino-1H-pyrazol-1-yl)(2-methyl-5-((2-(trifluoromethyl)pyridin-3-yl)methoxy)benzofuran-3-yl)methanone] had a half-inhibitory concentration (IC50) of 1000 to 20000 nM.

In general, IC50 refers to the point on the concentration scale where inhibition reaches its midpoint. Low values mean inhibition by little substance, high ones a need for much substance.

These data come from patent publication US20240336602A1 (Katholieke Universiteit Leuven, priority 2020, published 2024).
